One compound from PMC7515950, “Physiologically based pharmacokinetic modeling to assess metabolic drug–drug interaction risks and inform the drug label for fedratinib” (Cancer Chemotherapy and Pharmacology, 2020) can be followed below.

Several values for one entry are separate records, joined by “and”; a condition that tells them apart may be missing. Identical values can stand only once.

One may read the kinact as the maximal first-order rate at which the target is inactivated. A word on the CL/F: it is the apparent clearance, not corrected for the fraction that reaches the circulation. One may read the IC50 as the midpoint of a concentration-inhibition curve. Read a low IC50 as higher potency.

The target in data set [1] is T1, CYP2D6 (Homo sapiens, UniProt P10635).
T1 construct: from tissue; host or cells: human liver microsomes
Nature of the data set: CYP inhibition in human liver microsomes (MIH0887), CYP2D6. The data set is classed as in vitro ADME. The settings on record: HLM, apparent Ki, reversible inhibition. How it is done: (§1) The CYP enzyme reverse inhibition and mechanism-based inhibition (MBI) parameters were estimated in the human liver microsome (HLM) incubation in vitro studies. The reported reversible inhibition parameter (i.e., apparent Ki) values for CYP2C8, CYP2C9, and CYP2D6, along with the MBI parameters (i.e., KI or Kapp and kinact) for CYP2C19 and CYP3A4, were supplied to the PBPK DDI model (see Table 2).
(In general: Liver microsomes are a subcellular fraction often used to study metabolism.)

Data set [2] addresses T2, CYP2C19 (Homo sapiens, UniProt P33261).
T2 construct: from tissue; host or cells: human liver microsomes
Nature of the data set: CYP mechanism-based inhibition in human liver microsomes (MIH0887), CYP2C19. The data set is classed as in vitro ADME. The settings on record: HLM. As for the experimental part: as §1

Data set [3] is described as follows: Compartmental PK modeling of single-dose 500 mg data in healthy volunteers. Type of data set: in vivo, human. From the text: The PBPK model of fedratinib was constructed in Simcyp® by integrating available in vitro and in vivo information, including physiochemical parameters, permeability and blood binding parameters, enzyme and transporter inhibition parameters, and human PK parameters estimated from clinical PK data. A stepwise “middle-out” approach was applied to estimate the human PBPK parameters for fedratinib in Simcyp®. First, the temporal profiles of mean plasma concentration of fedratinib were collected from the clinical studies in healthy volunteers (HVs) administered single doses of 500 mg fedratinib. Then the preliminary human oral PK parameters were estimated as described in Supplemental Materials SM2 and SM3.
The minimal PBPK model within Simcyp® was used to describe the distribution of fedratinib. The Vss, Vsac, and Q values were estimated using the compartmental PK modeling approach (see Table 3 in Supplemental Material SM 3) and further refined within Simcyp® based on the model-predicted bioavailability (F) using the following equations: […]
The estimated values of Vss, Vsac, and Q were directly supplied to the Distribution module within Simcyp® without further modifications. Note that since the intravenous (IV) PK data are not available in humans for fedratinib, the distribution parameters include Vss estimated from the oral human PK data may not be accurate and will be subject to further verification if the human IV PK data of fedratinib or other relevant clinical information are available in the future.
The temporal profiles of mean plasma concentration of fedratinib were collected from the clinical studies (TDU12620, BDR12462, FED12258, and ALI13451) conducted in healthy volunteers (HVs) administered with single doses of 500 mg fedratinib. The compartmental PK modeling was conducted in Phoenix®/NLME (V7, Certara, Princeton, NJ). A two-compartment PK structural model with the additive error model was identified to successfully describe the PK data. The “naïve pooled” algorithm provided in Phoenix was used for parameter estimation.

For data set [4], the target named is P-gp (Homo sapiens, UniProt P08183). Nature of the data set: P-gp interaction in Caco-2/TC7 (Study AIV0208). Type of data set: in vitro ADME. Further details: endogenous in cells; host or cells: Caco-2/TC7. The text has this:
The reported IC50 values were converted to Ki values using the Cheng-Prusoff equation [10]:
The transporter inhibition parameters (Ki) for fedratinib were derived from the experimentally determined IC50 values using the Cheng-Prusoff equation, i.e., Ki = IC50/(1+[S]/Km) with the substrate concentrations ([S]) reported in the experimental studies and the substrate Km values collected from literature, as summarized in Table 13.

Setting [5] is: healthy subjects, single doses of 500 mg, two-compartment model.

T2 sequence (P33261 whole entry): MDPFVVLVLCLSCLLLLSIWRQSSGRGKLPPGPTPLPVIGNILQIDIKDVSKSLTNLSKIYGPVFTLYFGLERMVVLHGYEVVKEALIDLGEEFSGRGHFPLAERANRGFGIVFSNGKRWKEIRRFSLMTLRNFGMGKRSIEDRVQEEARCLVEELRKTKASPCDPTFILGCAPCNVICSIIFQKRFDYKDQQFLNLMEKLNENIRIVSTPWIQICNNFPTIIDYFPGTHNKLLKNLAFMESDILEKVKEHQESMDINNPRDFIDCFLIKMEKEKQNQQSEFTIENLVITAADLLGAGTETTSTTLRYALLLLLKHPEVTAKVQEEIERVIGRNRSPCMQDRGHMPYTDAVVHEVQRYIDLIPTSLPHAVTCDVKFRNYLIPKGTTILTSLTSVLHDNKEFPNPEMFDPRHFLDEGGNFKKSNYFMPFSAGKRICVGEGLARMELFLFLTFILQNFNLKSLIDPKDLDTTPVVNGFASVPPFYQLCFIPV
Sequence of P-gp (P08183 whole entry): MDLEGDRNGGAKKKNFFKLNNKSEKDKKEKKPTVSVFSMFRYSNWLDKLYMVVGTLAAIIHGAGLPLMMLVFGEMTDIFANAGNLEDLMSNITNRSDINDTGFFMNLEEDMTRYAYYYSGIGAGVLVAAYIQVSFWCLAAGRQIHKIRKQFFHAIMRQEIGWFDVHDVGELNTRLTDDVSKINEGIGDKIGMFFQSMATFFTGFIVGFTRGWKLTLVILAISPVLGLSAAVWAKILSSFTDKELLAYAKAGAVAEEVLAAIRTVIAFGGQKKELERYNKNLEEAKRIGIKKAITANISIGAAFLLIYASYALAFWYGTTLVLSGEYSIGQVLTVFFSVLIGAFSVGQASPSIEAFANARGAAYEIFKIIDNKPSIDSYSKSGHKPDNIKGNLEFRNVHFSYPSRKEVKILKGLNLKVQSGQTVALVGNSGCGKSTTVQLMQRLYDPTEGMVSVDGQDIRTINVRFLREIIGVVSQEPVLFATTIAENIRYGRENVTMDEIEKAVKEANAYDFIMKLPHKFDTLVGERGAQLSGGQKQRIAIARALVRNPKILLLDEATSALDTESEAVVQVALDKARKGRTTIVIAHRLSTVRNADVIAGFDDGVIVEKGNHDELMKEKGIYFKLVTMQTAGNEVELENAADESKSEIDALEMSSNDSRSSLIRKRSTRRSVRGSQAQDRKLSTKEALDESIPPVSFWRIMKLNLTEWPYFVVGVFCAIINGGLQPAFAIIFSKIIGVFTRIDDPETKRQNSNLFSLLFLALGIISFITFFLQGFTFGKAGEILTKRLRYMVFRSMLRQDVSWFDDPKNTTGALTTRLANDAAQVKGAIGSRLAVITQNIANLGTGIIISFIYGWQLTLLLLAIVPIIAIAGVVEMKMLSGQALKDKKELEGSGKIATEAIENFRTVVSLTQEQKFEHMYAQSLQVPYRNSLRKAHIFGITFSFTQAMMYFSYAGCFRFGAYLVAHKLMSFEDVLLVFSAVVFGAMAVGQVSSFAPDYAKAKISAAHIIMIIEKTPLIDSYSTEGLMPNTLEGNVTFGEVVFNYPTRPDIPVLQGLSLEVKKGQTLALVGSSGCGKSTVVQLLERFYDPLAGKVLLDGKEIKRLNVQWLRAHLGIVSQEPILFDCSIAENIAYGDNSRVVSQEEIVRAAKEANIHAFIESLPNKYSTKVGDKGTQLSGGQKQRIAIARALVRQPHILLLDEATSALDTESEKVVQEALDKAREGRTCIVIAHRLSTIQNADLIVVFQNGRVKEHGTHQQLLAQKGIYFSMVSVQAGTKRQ
T1 sequence (P10635 whole entry): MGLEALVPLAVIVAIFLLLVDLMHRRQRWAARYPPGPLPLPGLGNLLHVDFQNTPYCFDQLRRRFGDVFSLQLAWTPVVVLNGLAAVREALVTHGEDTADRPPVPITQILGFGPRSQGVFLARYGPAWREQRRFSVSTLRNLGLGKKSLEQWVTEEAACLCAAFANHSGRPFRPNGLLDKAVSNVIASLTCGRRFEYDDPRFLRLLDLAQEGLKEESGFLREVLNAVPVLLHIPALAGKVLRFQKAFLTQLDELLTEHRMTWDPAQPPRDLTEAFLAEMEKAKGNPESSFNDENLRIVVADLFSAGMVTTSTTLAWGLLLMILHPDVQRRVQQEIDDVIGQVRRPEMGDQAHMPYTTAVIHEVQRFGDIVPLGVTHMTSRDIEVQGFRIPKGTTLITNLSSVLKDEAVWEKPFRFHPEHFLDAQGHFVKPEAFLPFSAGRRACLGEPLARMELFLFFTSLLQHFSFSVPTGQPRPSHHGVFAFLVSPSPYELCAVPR

As to `Cc1cnc(Nc2ccc(OCCN3CCCC3)cc2)nc1Nc1cccc(S(=O)(=O)NC(C)(C)C)c1` [Fedratinib], the Ki worked out at 10.1 µM in data set [1] and 10 µM in data set [4] (from IC50 by Cheng-Prusoff, probe digoxin). In addition, the figures for the “CYP2C19 KI or Kapp” value in data set [2] and in data set [2] (listed as fedratinib) were 112 µM and 112.000 µM, respectively. Moreover, the kinact in data set [2] (human, human liver microsomes) is 0.000558 s⁻¹. The compound also yielded a ka in data set [3] (Simcyp input) of 0.220 h⁻¹. Besides, the “Q (inter-compartment clearance)” value in data set [3] (from compartmental modeling, assuming F ~0.36) was ~ 11 L/h. Further, the Vsac came to 3.5 L/kg in data set [3] (from compartmental modeling, assuming F ~0.36 and body weight ~81 kg); 3.5 L/kg in data set [3] (from compartmental modeling, assuming F ~0.36 and body weight ~81 kg, listed as fedratinib). Also, the “ka (first-order absorption constant)” value in data set [3] (healthy subjects, single doses of 500 mg) is 0.22 h⁻¹ and 0.221 h⁻¹; in data set [3] (healthy subjects, single doses of 500 mg, listed as fedratinib), ~ 0.22 h^-1. In data set [3] (setting [5]), this compound showed a CL2/F of 30.8 L/h. Also, the CL/F in data set [3] (setting [5]) was found to be 27.2 L/h. The V2/F in data set [3] (setting [5]) is recorded as 797 L. This compound returned a V/F in data set [3] (setting [5]) of 107 L. In addition, in data set [3] (human, plasma, oral, 500 mg, from compartmental modeling, assuming F ~0.36 and body weight ~81 kg, read-out: Vss), the Vd was around 4.1 L/kg. In addition, the “P-gp substrate in vitro” value in data set [4] is listed as “substrate”. In addition, in data set [4] (probe digoxin 5 μM), the IC50 came to 10.1 µM.
